Measured values from publication PMC8942522 (Journal of Enzyme Inhibition and Medicinal Chemistry, 2022).
“And” between values parts separate entries of the source, which are not always exact repeats. Equal entries are not always repeated. Where two headings read alike, the source gives them in different places.

Columns and labels:
[1] = tested on: intracellular amastigotes of T. cruzi; assay: Intracellular T. cruzi in U-2 OS cells; type: cell-based, T. cruzi (strain Y); conditions: for selectivity index [SI vs. THP-1], T. cruzi: CC50 THP-1 / EC50 T. cruzi; for selectivity index [SI vs. U-2 OS], T. cruzi: CC50 U-2 OS / EC50 T. cruzi; for EC50: read-out: Cytotoxicity EC50 T. cruzi, intracellular amastigotes in U-2 OS, 72 h
[2] = tested on: intracellular amastigotes of L. donovani; assay: Intracellular L. donovani in THP-1 cells; conditions: for selectivity index [SI vs. THP-1], L. donovani: CC50 THP-1 / EC50 L. donovani
TcTryS = target: T1, TcTryS (Trypanosoma cruzi, UniProt Q9GT49); assay: TryS inhibition assay; type: biochemical; conditions: for % TryS inhibition at 25 μM, T. cruzi: mean ± SD, NA = not active (inhibition ≤ 0.0 ± 5.0%); for IC50: IC50 T. cruzi TryS, 1 h pre-incubation, DRC, values italic and bold in Table 1
T1 sequence (Q9GT49 1-647): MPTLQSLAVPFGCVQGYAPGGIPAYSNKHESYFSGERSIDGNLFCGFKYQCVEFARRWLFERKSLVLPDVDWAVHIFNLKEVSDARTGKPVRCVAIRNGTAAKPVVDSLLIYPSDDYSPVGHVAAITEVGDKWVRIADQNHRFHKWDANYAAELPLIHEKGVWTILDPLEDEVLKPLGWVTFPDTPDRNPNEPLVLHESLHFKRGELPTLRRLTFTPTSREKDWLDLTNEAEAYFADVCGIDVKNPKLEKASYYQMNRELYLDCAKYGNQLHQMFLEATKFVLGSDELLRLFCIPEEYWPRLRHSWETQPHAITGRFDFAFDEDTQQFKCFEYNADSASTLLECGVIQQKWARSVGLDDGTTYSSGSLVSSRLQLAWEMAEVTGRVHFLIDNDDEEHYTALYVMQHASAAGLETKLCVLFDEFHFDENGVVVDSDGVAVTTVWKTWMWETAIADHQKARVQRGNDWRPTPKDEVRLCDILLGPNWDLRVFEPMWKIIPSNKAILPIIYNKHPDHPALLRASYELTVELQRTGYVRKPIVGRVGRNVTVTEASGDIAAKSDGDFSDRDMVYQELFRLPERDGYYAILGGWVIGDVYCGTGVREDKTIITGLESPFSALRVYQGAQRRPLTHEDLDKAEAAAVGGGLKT

TbTryS [3] = assay: Dilution and reduction-based; type: biochemical, Trypanosoma brucei; conditions: Ebselen 10 µM 1 h, n = 6
[4] = tested on: redox biosensor hGrx1-roGFP2 in bloodstream T. b. brucei; assay: Redox assay with hGrx1-roGFP2 reporter cell line; type: cell-based, T. brucei brucei (strain 427, cell line 449)
TbTryS [5] = type: biochemical, Trypanosoma brucei; conditions: 1 h, n = 8; for TryS inhibition ± SD, mass spectrometry sample B: IAM 15 mM, no Ebselen
bloodstream T. brucei = assay: Cytotoxicity against bloodstream T. brucei; type: cell-based, T. brucei (strain 427, cell line 449); conditions: CC50 THP-1 / EC50 T. brucei
TbTryS [6] = assay: Time-dependent inhibition assay; type: biochemical, Trypanosoma brucei; conditions: n = 6
LiTryS = target: T2, LiTryS (Leishmania infantum, UniProt A4I2Z3); assay: TryS inhibition assay; type: biochemical; conditions: mean ± SD, NA = not active (inhibition ≤ 0.0 ± 5.0%)
T2 sequence (A4I2Z3 1-652): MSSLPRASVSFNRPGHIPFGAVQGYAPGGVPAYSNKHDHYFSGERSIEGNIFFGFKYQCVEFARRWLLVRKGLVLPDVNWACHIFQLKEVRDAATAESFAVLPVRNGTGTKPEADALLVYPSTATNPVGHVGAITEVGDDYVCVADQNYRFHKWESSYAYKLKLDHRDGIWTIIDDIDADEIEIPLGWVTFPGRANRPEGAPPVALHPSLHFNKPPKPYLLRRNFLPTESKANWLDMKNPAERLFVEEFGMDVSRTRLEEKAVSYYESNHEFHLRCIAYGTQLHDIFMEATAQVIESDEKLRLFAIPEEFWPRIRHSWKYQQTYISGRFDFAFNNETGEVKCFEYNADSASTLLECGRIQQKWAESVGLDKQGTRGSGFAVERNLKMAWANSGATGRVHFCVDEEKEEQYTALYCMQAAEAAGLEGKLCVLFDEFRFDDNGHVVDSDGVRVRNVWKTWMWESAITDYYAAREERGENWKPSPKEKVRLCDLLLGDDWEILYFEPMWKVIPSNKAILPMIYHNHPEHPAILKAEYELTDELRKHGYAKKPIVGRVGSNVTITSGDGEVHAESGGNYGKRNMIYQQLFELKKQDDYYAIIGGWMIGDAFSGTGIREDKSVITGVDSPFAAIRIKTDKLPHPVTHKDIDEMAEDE

[7] = target: T3, TryS from Trypanosoma brucei (TbTryS) (Trypanosoma brucei brucei, UniProt Q586P2); assay: TryS inhibition assay; type: biochemical; conditions: mean ± SD, NA = not active (inhibition ≤ 0.0 ± 5.0%)
T3 sequence (Q586P2 1-627): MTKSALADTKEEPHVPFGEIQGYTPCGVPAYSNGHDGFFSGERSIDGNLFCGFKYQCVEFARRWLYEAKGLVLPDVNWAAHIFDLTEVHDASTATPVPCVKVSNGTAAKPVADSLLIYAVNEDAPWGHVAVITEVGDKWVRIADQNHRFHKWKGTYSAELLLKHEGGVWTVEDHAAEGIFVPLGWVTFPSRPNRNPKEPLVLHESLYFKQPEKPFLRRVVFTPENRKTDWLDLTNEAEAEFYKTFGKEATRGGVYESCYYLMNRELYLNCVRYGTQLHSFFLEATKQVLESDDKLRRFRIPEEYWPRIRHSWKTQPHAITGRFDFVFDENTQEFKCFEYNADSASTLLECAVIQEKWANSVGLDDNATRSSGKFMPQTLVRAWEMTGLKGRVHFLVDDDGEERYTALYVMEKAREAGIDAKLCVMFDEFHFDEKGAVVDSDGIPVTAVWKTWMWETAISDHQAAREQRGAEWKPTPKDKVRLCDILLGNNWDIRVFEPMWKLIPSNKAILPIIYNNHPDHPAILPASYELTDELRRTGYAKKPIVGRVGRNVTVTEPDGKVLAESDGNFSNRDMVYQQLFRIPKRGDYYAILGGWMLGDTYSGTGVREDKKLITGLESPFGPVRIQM

SMILES: NC(Cc1cc(O)c(O)cc1O)C(=O)O (racemic) [Compound 3, 6-Hydroxy-DL-DOPA]
- selectivity index [SI vs. THP-1], T. cruzi [1]: > 2.7
- selectivity index [SI vs. U-2 OS], T. cruzi [1]: 2.7
- EC50 [1]: 34 µM and ~34 µM

SMILES: C[C@@H]1[C@H](O)[C@@H](C)/C=C/C=C/C=C/C=C/C=C/C=C/C=C/[C@H](O[C@@H]2O[C@H](C)[C@@H](O)[C@H](N)[C@@H]2O)C[C@@H]2O[C@](O)(C[C@@H](O)C[C@@H](O)[C@H](O)CC[C@@H](O)C[C@@H](O)CC(=O)O[C@H]1C)C[C@H](O)[C@H]2C(=O)O [Amphotericin B]
- selectivity index [SI vs. THP-1], L. donovani [2]: > 22

SMILES: O=C(Cn1ccnc1[N+](=O)[O-])NCc1ccccc1 [Benznidazole]
- EC100 ([1]; reference drug concentration used in T. cruzi assay): 400 µM

SMILES: O=C(O)C1=CC(=C(c2ccc(O)c(C(=O)O)c2)c2ccc(O)c(C(=O)O)c2)C=CC1=O [Compound 1, Aurintricarboxylic acid]
- inhibition at 25 µM (TcTryS; read-out: % TryS inhibition at 25 μM, T. cruzi): 5.5 ± 2.8%

SMILES: O=C(O)c1cc[c]([Hg][Cl])cc1 [Compound 2, 4-Chloromercuribenzoic acid]
- % TryS inhibition at 25 μM, T. cruzi (TcTryS): 32.0 ± 9.7%

SMILES: O=c1c2ccccc2[se]n1-c1ccccc1 [Compound 5, Ebselen]
- selectivity index [SI vs. THP-1], T. cruzi [1]: > 36
- selectivity index [SI vs. U-2 OS], T. cruzi [1]: 2.4
- EC50 [1]: 2.8 ± 0.1 µM
- TryS inhibition ± SD, irreversible inhibition assay, sample A (TbTryS [3]; buffer exchanged, DTT 5 mM 30 min): 89 ± 8.5%
- TryS inhibition ± SD, irreversible inhibition assay, sample B (TbTryS [3]; buffer exchanged, no DTT): 97.0 ± 5.0%
- TryS inhibition ± SD, irreversible inhibition assay, sample C (TbTryS [3]; no buffer exchange, no DTT): 100 ± 9%
- EC50 ([2]; Leishmania donovani, THP-1, 96 h, read-out: Cytotoxicity EC50 L. donovani): > 100 µM
- oxidation of the biosensor ([4]; 18 µM (2-fold its EC50), 4 h, reverted by DTT 1 mM 20 min): 48%
- TryS inhibition ± SD, mass spectrometry sample A (TbTryS [5]; Ebselen 20 µM): 100 ± 7%
- TryS inhibition ± SD, mass spectrometry sample A (value in parenthesis) (TbTryS [5]; Ebselen 50 µM): 96 ± 8%
- IC50 (TcTryS): 13.8 ± 1.5 µM
- selectivity index [SI vs. THP-1], T. brucei (bloodstream T. brucei): 11
- TryS inhibition ± SD, time-dependent assay, sample A (TbTryS [6]; Ebselen 5 µM pre-incubated 1 h with TbTryS, reaction started with MM): 43.6 ± 4.5%
- TryS inhibition ± SD, time-dependent assay, sample C (TbTryS [6]; Ebselen 5 µM, no pre-incubation): 1.8 ± 4.2%

SMILES: C[n+]1cc2c3c(ccc2c2ccc4cc5c(cc4c21)OCO5)OCO3 [Compound 6, Sanguinarine chloride]
- selectivity index [SI vs. THP-1], T. cruzi [1]: 9.5
- selectivity index [SI vs. U-2 OS], T. cruzi [1]: 1.3
- EC50 [1]: 0.37 ± 0.11 µM
- selectivity index [SI vs. THP-1], L. donovani [2]: 2
- IC50 (TcTryS): 40 ± 1.2 µM

SMILES: Clc1ccc(C(c2ccc(Cl)cc2)n2cc[n+](CC(OCc3ccc(Cl)cc3Cl)c3ccc(Cl)cc3Cl)c2)cc1 (stereo not shown) [Compound 7, Calmidazolium chloride]
- selectivity index [SI vs. U-2 OS], T. cruzi [1]: 1.1
- EC50 [1]: 1.6 ± 0.1 µM
- effect on parasites at 2× EC50 in redox assay ([4]; 2× EC50, 4 h): massive cell death
- IC50 (TcTryS): 2.7 ± 0.5 µM

SMILES: N=C1Sc2ccccc2C2=NCCCN12 [Compound 9, PD 404,182]
- % TryS inhibition at 25 μM, L. infantum (LiTryS): 8.9 ± 5.9%
- % TryS inhibition at 25 μM, T. cruzi (TcTryS): 10.9 ± 5.6%

SMILES: Cl.Nc1nc(NCC2CCC(CNS(=O)(=O)c3cccc4ccccc34)CC2)nc2ccccc12 (stereo not shown) [Compound 11, CGP 71683 hydrochloride]
- % TryS inhibition at 25 μM, T. brucei [7]: 14.4 ± 8.2%
- selectivity index [SI vs. THP-1], L. donovani [2]: 1.1
- % TryS inhibition at 25 μM, T. cruzi (TcTryS): 34.7 ± 7.6%

SMILES: CCCC[P+](CCCC)(CCCC)Cc1ccc(NC(=O)[C@H](Cc2ccc3ccccc3c2)NC(=NC2CCCCC2)NC2CCCCC2)cc1.Cl.[Cl-] [Compound 13, WIN 64338 hydrochloride]
- % TryS inhibition at 25 μM, T. brucei [7]: 9.2 ± 7.4%
- % TryS inhibition at 25 μM, L. infantum (LiTryS): 70.9 ± 6.8%
- selectivity index [SI vs. THP-1], L. donovani [2]: 1.9
- % TryS inhibition at 25 μM, T. cruzi (TcTryS): 25.9 ± 6.5%

SMILES: O=C(CCc1c(-c2ccc(F)cc2)[nH]c2ccc(F)cc12)N1CCN(c2ccncc2)CC1 [Compound 14]
- % TryS inhibition at 25 μM, L. infantum (LiTryS): 16.8 ± 17.9%
- % TryS inhibition at 25 μM, T. cruzi (TcTryS): 7.1 ± 4.0%
- selectivity index [SI vs. THP-1], T. brucei (bloodstream T. brucei): 11

SMILES: Cc1nc(C(=O)N2CCCC2c2ccc(F)c(F)c2)c(=O)[nH]c1C (stereo not shown) [Compound 18]
- % TryS inhibition at 25 μM, L. infantum (LiTryS): 28.5 ± 11.1%

SMILES: CCN(CC)C(=O)COC(=O)c1c(NC(C)=O)sc2c1CCCC2 [Compound 19]
- % TryS inhibition at 25 μM, T. cruzi (TcTryS): 13.3 ± 3.3%
- selectivity index [SI vs. THP-1], T. brucei (bloodstream T. brucei): > 4

SMILES: O=C1Cc2cc(-c3csc(NCCc4cccs4)n3)cc3c2N1CCC3 [Compound 22]
- % TryS inhibition at 25 μM, L. infantum (LiTryS; listed as 46, 25 µM): 74%
- % TryS inhibition at 25 μM, T. cruzi (TcTryS): 12.9 ± 6.1%

SMILES: NC(=O)CI [IAM, iodoacetamide]
- TryS inhibition ± SD, mass spectrometry sample B (TbTryS [5]): 20 ± 9%
- TryS inhibition ± SD, mass spectrometry sample B (TbTryS [5]; listed as iodoacetamide): negligible effects on TryS activity
